Measurements published in US11246924B2, “Alpha-helical peptide nanofibers as a self-adjuvanting vaccine platform” (Duke University, priority 2016, dated 2022).
“Also recorded” adds a separate entry of the source.

Assays:
[1] = test system: PEPvIII epitope (EGFRvIII); test: PEPvIII-specific IgG antibody titers in sera after subcutaneous immunization (ELISA); format: in vivo, C57BL/6 mice; conditions: for PEPvIII-specific IgG antibody response: s.c. primary injection week 0 (2×10^−3 M PEPvIII epitope, 100 μL), half-dose boosts weeks 4 and 7, sera over 18 weeks
Experimental: Vaccine Preparation: To prepare PEPvIII-Coil29 peptide fibers solutions for immunization, the lyophilized peptides were first dissolved in 10×10^−3 M sterile acetate buffer (pH 4) at 8×10^−3 M and incubated overnight at […]. The peptide solutions were subsequently diluted to 2×10^−3 M in 1×PBS, and incubated 3 h at room temperature prior to immunization. For coassembled peptide fiber formation, PEPvIII-Coil29 and PADRE-Coil29 were weight out separately, and mixed on vortex for 5 mins before dissolved in 10×10^−3 M sterile acetate buffer (pH 4), and diluted in the same procedure as PEPvIII-Coil29 nanofiber preparation. To prepare CFA/IFA peptide emulsion for immunization, PEPvIII peptide was initially dissolved in 4×10^−3 M in sterile water, and equal volume of adjuvant solution was mixed in with peptide solution and vortexed for 45 min to bring the final concentration of peptide to 2×10^−3 M for injection.
Mice and Immunizations: Female 057B1/6 mice were purchased from Harlan laboratory and housed at the animal facility at the University of Chicago and Duke University. All procedures were approved by both the University of Chicago Institutional Animal Care and Use Committee (protocol 71-900) and the Duke Institutional Animal Care and Use Committee (protocol A314-15-12 19N). Mice (6-12 weeks old; age-matched within each experiment) were randomly assigned in groups of five for each condition based on previous findings that this size was sufficient to distinguish responding versus nonresponding groups. Anesthetized mice were immunized subcutaneously with the indicated solutions (2×50 μL at the shoulders) and boosted where indicated with half-doses (2×25 μL) after 4 weeks and 7 weeks. Sera were collected from the submandibular (cheek) vein for analysis via ELISA. Mice were sacrificed 7 d after the final immunization, and the cells from the draining lymph nodes (axillary, brachial, and inguinal) were collected.
ELISA for Serum Antibodies: Serum was analyzed for antigenspecific Ig (Anti-IgG (H+L), Jackson Immuno Research, Cat #115-035-003) or IgG (gamma-specific, #115-035-071) by ELISA, as previously described (Egelman, E. H., et al. Structure 2015, 23, 280-28). To detect E214-specifi c antibodies, the plate was coated with 5 μg/mL E214-ahx-C (provided by Merck) in PBS or with 5 μg/mL streptavidin (Sigma #85878) followed by 10 μg/mL E214-PEG-biotin in PBS. […]
Peptides were synthesized by solid phase peptide synthesis by methods known in the art. […] Antibody titers were determined using ELISA.
We subsequently investigated the immunogenicity of the Coil29 peptide platform. […] Sera were collected from all the groups at predesignated dates over 18 weeks, and analyzed for peptide-specific antibody titers via ELISA (FIG. 9). […]

SGSG-Coil29 peptide = test: IgG antibody response against the carrier SGSG-Coil29 sequence (ELISA); format: in vivo, C57BL/6 mice; conditions: boosts weeks 4 and 7
Experimental: Two boost containing half the primary immunization doses were given on week 4 and week 7 for both groups. Sera were collected to measure the IgG production against SGSG-Coil29 peptide using ELISA.
Antibody responses against the carrier (SGSG Coil29 sequence) were also measured by ELISA for both PEPvIII-Coil29 group and PEPvIII-Coil29/PADRE-Coil29 group (FIG. 4).
We subsequently investigated the immunogenicity of the Coil29 peptide platform. Four groups of C57BL/6 mice were immunized subcutaneously with same amount of epitope peptides (2×10^−3M of PEPvIII epitopes, 100 μL per mouse) on week 0, and boosted twice with half of the primary doses (2×10^−3M of PEPvIII epitopes, 50 μL per mouse) at weeks 4 and 7. Mice primed with an emulsion of PEPvIII with complete Fruend's adjuvant (CFA), and boosted with PEPvIII and incomplete Fruend's adjuvant (IFA) served as a positive control. Sera were collected from all the groups at predesignated dates over 18 weeks, and analyzed for peptide-specific antibody titers via ELISA (FIG. 9). […] Strikingly, the second boost at week 7 elevated the antibody titer nearly 100-fold, with the highest titer level reaching about 10^5 at week 9. […] The considerable difference in antibody response between P-C and P-C/P groups underlined the importance of the T cell epitope (PADRE) in promoting antibody responses with the Coil29 platform. […]

splenocytes = test: T-cell ELISPOT (IL-4, IFNγ) on splenocytes of immunized mice; format: cell-based, C57BL/6 mice
Experimental: T-Cell ELIspot: T-cell ELIspots were performed as described. Briefly, 0.25 million cells from the spleen were plated in each well of a 96-well ELIspot plate (Millipore, MSIPS4510), in 200 μL per well. The cells were then stimulated with peptide or left untreated as negative controls. […] Streptavidinalkaline phosphatase (3310-10) was purchased from Mabtech. Spots were developed using substrate Sigmafast BCIP/NBT (Sigma, B5655). Plates were imaged and enumerated using an ELISPOT reader (Cellular Technology, Ltd).
We further analyzed how the PADRE epitope dosing could impact the humoral response in the current platform (FIG. 10). Four groups of mice were immunized with Coil29 nanofibers formulated with different PADRE epitope concentrations ranging from 0 to 0.5×10^−3M in final concentration, and the PEPvIII-specific total IgG titers were monitored over 17 weeks (FIG. 10A). […] However, the difference in antibody response in relationship with PADRE dosing could possibly be caused by several reasons, including the use of a different B cell epitope. We are currently investigating the mechanism of this observation. It highlighted the significance in future application where the formulation of nanofibers should be fine-tuned for different epitopes induce optimal response. […]

[2] = test system: dendritic cells (CD11c+MHCII+F4/80−); test: Uptake of TAMRA labelled peptides by dendritic cells in vivo (flow cytometry of peritoneal lavage fluid); parameters: species or system C57BL/6 mice; conditions: TAMRA labelled peptide, i.p. injection, peritoneal lavage 20 h after injection
Experimental: (§1) Antibodies and Flow Cytometry: Antibodies were purchased from eBioscience unless specified. Flow cytometry was performed using LSRII blue (BD). FlowJo (Tree Star Inc.) was used in the analysis of flow data. For analysis of cell recruitment to the peritoneal cavity, cells isolated from i.p. lavage fluid were stained and analyzed as described.
(§2) To examine whether the epitope-bearing nanofibers could be internalized by APCs, C57BL/6 mice were immunized via i.p. injection with 1×PBS, or PEPvIII or P-C peptides fluorescently labelled with TAMRA (FIG. 8). […] The peritoneal lavage fluid was collected 20 h after injections, to analyze for the percentage of TAMRA positive DCs (CD11c^+MHCII^+F4/80^−) and MΦ (CD11c^−F4/80^+) using flow cytometry (FIG. 18).

[3] = test system: macrophages (CD11c−F4/80+); test: Uptake of TAMRA labelled peptides by macrophages in vivo (flow cytometry of peritoneal lavage fluid); parameters: species or system C57BL/6 mice; conditions: TAMRA labelled peptide, i.p. injection, peritoneal lavage 20 h after injection
Experimental: as §1, §2

Substance | PEPvIII-specific total IgG titers, PADRE dosing study ([1]; PADRE 0 or 0.05×10^−3 M final concentration, monitored over 17 weeks) | PEPvIII-specific IgG antibody response [1] | PEPvIII-specific IgG antibody response ([1]; listed as PEPvIII-Coil29) | IgG antibody response against SGSG-Coil29 (SGSG-Coil29 peptide) | IgG antibody response against SGSG-Coil29 (SGSG-Coil29 peptide; listed as PEPvIII-Coil29) | T cell IFNγ and IL4 response (ELISPOT) (splenocytes; splenocytes collected on week 18, stimulated with PADRE or PEPvIII peptide) | percentage of TAMRA positive dendritic cells [2] | percentage of TAMRA positive macrophages [3] | concentration above which the ELISPOT response saturated (splenocytes; preliminary experiments)
NH2-LEEKKGNYVVTDH SGSG QARILEADAEILRAYARILEAHAEILRAQ-Amide (H-LEEKKGNYVVTDHSGSGQARILEADAEILRAYARILEAHAEILRAQ-NH2) [P-C] | negligible levels of IgG | unable to raise a significant level of epitope-specific IgG antibody titer | very weak responses | gradually diminished to a negligible level after the total IgG titers peaked at week 9 | self-limiting, returning to baseline levels after 16 weeks | responded to neither PADRE peptide nor PEPvIII peptide |  |  | 
NH2-LEEKKGNYVVTDH-Amide [PEPvIII, reference compound] |  | did not elicit antibody responses; also recorded: failed to elicit any antibody response |  |  |  |  | statistically indistinguishable from the 1×PBS negative control group | statistically indistinguishable from the 1×PBS negative control group | 
NH2-aKXVAAVVTLKAa-Amide [PADRE, reference compound] |  |  |  |  |  |  |  |  | above 0.5×10^−6 M
